{"source": "ChEMBL document CHEMBL5291721", "about": "“A preclinical secondary pharmacology resource illuminates target-adverse drug reaction associations of marketed drugs” (Nat Commun, 2023); further: assay procedure not described here", "key": {"Mu-type opioid receptor": {"target": "Mu-type opioid receptor (Homo sapiens, UniProt P35372)", "sequence (P35372 whole entry)": "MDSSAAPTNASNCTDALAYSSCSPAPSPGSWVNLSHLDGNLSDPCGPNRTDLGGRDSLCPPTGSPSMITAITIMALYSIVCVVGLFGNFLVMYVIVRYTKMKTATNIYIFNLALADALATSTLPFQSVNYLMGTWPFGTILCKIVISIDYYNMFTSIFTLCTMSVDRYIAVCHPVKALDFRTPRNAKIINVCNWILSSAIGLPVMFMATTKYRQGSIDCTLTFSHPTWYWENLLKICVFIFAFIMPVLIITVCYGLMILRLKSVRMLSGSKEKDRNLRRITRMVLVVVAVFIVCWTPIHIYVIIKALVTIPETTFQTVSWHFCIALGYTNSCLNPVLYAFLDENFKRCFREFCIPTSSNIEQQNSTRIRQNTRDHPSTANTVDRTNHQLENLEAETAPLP"}, "Adenosine receptor A3": {"target": "T1, Adenosine receptor A3 (Homo sapiens, UniProt P0DMS8)", "T1 sequence (P0DMS8 whole entry)": "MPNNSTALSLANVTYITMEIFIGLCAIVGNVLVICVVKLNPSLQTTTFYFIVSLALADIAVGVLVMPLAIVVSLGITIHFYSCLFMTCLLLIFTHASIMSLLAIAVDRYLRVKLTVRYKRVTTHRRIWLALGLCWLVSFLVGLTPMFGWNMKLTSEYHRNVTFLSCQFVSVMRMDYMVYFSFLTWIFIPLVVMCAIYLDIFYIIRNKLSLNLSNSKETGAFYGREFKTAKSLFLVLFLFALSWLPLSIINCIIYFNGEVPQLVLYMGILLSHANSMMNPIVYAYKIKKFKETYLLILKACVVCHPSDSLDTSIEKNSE"}, "[1]": {"target": "Sodium-dependent dopamine transporter (Homo sapiens, UniProt Q01959)", "sequence (Q01959 whole entry)": "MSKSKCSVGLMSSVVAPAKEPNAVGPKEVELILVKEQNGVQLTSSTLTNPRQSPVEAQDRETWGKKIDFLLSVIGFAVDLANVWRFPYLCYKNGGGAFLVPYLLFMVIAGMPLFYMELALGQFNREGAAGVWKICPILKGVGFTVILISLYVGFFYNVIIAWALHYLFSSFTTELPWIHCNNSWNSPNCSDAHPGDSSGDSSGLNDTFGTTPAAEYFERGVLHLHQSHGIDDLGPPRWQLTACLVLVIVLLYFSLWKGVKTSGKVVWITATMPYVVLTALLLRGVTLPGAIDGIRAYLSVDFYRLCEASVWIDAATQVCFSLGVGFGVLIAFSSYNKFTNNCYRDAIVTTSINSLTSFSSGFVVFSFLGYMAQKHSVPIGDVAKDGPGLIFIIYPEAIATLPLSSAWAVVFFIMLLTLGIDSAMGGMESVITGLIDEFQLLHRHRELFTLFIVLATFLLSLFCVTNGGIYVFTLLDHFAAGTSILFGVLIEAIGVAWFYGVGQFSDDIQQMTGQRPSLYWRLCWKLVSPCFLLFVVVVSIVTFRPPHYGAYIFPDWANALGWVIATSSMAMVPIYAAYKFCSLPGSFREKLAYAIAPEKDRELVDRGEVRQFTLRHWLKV"}, "Vasopressin V2 receptor": {"target": "Vasopressin V2 receptor (Homo sapiens, UniProt P30518)", "sequence (P30518 whole entry)": "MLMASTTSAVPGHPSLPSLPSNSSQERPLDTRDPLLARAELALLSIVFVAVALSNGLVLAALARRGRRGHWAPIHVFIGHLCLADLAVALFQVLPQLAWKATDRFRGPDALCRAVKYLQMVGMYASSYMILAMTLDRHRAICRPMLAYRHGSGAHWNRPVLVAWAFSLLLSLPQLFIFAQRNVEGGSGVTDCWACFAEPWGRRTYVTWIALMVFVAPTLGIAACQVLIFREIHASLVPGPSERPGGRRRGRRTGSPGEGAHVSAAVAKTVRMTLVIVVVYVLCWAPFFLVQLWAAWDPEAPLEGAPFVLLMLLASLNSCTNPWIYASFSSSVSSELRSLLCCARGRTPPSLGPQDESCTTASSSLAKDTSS"}, "[2]": {"target": "T2, Alpha-2A adrenergic receptor (Homo sapiens, UniProt P08913)", "T2 sequence (P08913 whole entry)": "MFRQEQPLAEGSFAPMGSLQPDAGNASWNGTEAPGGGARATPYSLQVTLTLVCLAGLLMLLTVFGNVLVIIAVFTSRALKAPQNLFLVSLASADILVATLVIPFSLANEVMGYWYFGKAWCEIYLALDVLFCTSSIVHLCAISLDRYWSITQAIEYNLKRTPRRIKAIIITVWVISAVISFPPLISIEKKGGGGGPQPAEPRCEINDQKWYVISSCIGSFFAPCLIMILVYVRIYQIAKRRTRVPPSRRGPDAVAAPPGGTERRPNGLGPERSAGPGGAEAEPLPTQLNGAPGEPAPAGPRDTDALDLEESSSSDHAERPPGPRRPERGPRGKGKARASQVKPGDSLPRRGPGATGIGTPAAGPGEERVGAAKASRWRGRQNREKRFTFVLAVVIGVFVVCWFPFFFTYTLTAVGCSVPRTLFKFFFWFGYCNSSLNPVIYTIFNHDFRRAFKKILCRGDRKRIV", "format": "functional, cell-based"}, "[3]": {"target": "Voltage-dependent L-type calcium channel subunit alpha-1C (Rattus norvegicus, UniProt P22002)", "format": "functional"}, "Cannabinoid receptor 1": {"target": "Cannabinoid receptor 1 (Homo sapiens, UniProt P21554)", "sequence (P21554 whole entry)": "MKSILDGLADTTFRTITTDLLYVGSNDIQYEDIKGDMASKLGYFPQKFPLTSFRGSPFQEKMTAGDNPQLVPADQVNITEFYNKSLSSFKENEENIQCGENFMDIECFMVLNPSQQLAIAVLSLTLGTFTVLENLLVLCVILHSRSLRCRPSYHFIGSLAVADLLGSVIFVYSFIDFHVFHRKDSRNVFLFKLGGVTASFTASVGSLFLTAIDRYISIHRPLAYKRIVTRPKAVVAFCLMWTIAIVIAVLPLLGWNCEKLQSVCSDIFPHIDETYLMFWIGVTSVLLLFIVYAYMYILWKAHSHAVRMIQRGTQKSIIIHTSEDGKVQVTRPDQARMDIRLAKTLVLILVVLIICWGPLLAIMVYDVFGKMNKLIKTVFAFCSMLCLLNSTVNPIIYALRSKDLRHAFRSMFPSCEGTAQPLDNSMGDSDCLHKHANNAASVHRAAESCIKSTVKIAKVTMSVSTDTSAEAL", "format": "functional, cell-based"}, "Motilin receptor": {"target": "Motilin receptor (Homo sapiens, UniProt O43193)", "sequence (O43193 whole entry)": "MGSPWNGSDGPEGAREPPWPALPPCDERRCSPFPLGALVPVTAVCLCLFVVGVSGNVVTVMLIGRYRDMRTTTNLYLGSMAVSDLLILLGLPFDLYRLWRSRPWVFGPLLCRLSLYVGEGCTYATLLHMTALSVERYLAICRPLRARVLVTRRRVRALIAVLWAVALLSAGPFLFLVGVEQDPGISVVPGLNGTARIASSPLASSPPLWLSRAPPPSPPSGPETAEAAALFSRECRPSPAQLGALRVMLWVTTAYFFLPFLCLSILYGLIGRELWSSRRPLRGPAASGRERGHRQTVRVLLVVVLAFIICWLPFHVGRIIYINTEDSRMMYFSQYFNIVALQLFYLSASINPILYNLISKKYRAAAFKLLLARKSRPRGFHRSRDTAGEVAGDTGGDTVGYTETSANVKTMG"}, "[4]": {"target": "T3, Type-1 angiotensin II receptor (Homo sapiens, UniProt P30556)", "T3 sequence (P30556 whole entry)": "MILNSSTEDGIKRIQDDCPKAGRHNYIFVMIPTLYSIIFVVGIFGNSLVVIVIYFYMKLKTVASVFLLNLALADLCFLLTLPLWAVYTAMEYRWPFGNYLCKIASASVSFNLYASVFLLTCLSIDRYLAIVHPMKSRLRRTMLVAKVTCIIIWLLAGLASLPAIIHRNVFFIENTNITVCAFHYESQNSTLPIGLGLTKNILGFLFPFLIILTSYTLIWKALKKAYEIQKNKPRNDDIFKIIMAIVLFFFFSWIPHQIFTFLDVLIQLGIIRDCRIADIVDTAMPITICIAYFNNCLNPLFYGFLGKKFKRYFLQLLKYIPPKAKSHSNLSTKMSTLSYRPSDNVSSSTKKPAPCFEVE"}, "Histamine H2 receptor": {"target": "Histamine H2 receptor (Homo sapiens, UniProt P25021)", "sequence (P25021 whole entry)": "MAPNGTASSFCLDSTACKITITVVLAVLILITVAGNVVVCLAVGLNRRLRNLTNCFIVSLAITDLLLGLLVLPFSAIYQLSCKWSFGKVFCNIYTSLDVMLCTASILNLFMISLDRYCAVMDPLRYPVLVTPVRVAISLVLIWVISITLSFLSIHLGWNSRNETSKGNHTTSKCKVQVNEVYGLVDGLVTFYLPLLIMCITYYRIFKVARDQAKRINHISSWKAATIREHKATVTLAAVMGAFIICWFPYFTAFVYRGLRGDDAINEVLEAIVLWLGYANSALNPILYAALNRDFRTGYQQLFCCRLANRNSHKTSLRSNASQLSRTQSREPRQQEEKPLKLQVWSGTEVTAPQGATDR", "format": "functional, cell-based"}, "[5]": {"target": "cGMP-inhibited 3',5'-cyclic phosphodiesterase 3A (Homo sapiens, UniProt Q14432)", "sequence (Q14432 whole entry)": "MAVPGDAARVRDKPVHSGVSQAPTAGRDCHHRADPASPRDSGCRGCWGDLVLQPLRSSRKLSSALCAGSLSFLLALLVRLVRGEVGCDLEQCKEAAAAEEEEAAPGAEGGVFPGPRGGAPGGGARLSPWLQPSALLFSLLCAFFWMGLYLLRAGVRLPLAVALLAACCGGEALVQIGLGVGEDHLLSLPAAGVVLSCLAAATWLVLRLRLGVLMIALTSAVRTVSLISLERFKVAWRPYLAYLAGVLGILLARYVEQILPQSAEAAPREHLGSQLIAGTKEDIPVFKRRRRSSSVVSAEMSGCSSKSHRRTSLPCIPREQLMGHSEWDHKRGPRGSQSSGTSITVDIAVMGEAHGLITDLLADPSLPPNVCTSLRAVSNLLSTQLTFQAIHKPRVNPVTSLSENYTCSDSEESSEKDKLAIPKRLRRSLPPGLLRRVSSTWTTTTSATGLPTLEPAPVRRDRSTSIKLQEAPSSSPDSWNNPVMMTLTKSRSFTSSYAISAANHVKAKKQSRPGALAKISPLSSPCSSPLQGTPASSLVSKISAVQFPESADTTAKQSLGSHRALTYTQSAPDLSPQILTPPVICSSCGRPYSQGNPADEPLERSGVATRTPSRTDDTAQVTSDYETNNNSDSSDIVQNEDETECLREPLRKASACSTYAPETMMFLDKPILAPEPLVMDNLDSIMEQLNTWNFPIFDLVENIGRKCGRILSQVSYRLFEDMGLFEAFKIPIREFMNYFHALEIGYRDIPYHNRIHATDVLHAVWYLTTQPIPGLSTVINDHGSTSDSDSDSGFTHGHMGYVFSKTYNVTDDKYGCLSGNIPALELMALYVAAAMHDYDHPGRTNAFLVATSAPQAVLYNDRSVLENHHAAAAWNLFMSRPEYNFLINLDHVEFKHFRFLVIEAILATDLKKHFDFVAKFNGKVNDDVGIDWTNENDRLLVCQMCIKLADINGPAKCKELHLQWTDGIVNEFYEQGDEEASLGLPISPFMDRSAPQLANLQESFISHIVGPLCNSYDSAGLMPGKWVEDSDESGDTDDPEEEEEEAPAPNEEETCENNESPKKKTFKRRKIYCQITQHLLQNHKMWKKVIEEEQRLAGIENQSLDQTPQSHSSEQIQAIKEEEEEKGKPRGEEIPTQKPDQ", "format": "functional"}, "[6]": {"target": "Voltage-gated inwardly rectifying potassium channel KCNH2 (Homo sapiens, UniProt Q12809)", "format": "functional", "settings": "read-out: AC50"}, "[7]": {"target": "Growth hormone secretagogue receptor type 1 (Homo sapiens, UniProt Q92847)", "sequence (Q92847 whole entry)": "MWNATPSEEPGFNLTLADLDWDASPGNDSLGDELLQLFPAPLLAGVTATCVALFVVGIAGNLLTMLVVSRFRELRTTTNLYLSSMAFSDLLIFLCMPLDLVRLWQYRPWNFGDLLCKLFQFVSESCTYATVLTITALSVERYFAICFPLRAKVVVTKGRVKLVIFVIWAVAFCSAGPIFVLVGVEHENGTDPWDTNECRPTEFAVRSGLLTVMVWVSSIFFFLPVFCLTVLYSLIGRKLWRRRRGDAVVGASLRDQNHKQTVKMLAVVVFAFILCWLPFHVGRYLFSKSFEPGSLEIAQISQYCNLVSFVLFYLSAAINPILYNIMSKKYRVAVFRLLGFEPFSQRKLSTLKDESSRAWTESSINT"}, "Histamine H3 receptor": {"target": "Histamine H3 receptor (Homo sapiens, UniProt Q9Y5N1)", "sequence (Q9Y5N1 whole entry)": "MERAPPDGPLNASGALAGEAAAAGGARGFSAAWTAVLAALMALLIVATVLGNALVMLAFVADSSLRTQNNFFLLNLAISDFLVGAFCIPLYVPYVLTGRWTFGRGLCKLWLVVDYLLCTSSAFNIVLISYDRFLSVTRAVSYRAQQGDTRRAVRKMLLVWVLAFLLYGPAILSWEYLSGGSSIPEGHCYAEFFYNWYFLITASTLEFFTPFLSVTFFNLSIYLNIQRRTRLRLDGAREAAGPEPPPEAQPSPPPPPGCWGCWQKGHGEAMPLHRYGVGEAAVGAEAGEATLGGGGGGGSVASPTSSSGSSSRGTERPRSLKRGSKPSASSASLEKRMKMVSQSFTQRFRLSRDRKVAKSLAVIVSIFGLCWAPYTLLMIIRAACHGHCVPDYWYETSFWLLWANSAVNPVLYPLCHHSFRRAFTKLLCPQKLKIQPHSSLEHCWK"}, "[8]": {"target": "Kappa-type opioid receptor (Homo sapiens, UniProt P41145)", "sequence (P41145 whole entry)": "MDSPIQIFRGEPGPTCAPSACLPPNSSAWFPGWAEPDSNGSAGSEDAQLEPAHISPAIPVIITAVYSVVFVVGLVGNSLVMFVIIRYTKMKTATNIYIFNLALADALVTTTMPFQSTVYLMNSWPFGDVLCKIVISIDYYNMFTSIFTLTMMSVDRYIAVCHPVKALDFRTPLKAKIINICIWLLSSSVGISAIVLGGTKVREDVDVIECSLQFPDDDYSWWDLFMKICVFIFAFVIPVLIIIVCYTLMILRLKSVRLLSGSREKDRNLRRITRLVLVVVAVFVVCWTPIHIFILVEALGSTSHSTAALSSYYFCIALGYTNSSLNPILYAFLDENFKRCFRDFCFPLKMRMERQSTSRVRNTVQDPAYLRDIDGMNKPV"}, "Progesterone receptor": {"target": "T4, Progesterone receptor (Homo sapiens, UniProt P06401)", "T4 sequence (P06401 whole entry)": "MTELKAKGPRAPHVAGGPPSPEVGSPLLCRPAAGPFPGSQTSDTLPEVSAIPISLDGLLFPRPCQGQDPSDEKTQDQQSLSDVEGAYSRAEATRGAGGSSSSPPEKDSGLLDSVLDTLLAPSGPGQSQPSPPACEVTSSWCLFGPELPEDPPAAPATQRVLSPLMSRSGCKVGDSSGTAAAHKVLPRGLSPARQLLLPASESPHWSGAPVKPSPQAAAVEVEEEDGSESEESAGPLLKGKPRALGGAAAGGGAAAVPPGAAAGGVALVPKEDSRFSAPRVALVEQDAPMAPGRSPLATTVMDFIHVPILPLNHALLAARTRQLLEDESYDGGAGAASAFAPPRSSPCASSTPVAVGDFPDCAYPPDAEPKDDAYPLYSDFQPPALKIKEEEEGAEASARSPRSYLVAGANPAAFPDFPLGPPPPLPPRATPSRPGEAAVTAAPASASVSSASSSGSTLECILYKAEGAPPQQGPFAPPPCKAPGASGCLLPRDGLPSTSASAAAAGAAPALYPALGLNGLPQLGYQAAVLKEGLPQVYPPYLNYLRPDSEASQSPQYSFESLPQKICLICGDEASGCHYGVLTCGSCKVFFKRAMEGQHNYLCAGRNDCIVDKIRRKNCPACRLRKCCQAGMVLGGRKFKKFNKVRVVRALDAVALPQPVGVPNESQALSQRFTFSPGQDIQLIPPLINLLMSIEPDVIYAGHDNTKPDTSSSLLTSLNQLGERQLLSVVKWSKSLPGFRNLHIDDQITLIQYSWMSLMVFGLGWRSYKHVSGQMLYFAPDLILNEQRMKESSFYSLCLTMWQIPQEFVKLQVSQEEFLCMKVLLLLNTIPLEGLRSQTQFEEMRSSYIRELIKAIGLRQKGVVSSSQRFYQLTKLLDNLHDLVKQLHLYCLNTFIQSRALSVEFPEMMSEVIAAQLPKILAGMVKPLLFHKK", "format": "functional"}}, "data": [{"smiles": "Cc1nnc2n1-c1ccc(Cl)cc1C(c1ccccc1Cl)=NC2", "note": "[TRIAZOLAM]", "values": [{"measurement": "AC50", "setting": "Mu-type opioid receptor", "result": "> 30", "unit": "µM"}, {"measurement": "AC50", "setting": "Adenosine receptor A3", "result": "> 30", "unit": "µM"}, {"measurement": "AC50", "setting": "[1]", "result": "> 30", "unit": "µM"}, {"measurement": "AC50", "setting": "Vasopressin V2 receptor", "result": "> 30", "unit": "µM"}, {"measurement": "AC50", "setting": "[2]", "result": "> 10", "unit": "µM"}, {"measurement": "AC50", "setting": "[3]", "result": "> 10", "unit": "µM"}, {"measurement": "AC50", "setting": "Cannabinoid receptor 1", "result": "> 30", "unit": "µM"}, {"measurement": "AC50", "setting": "Motilin receptor", "result": "> 10", "unit": "µM"}, {"measurement": "AC50", "setting": "[4]", "result": "> 30", "unit": "µM"}, {"measurement": "AC50", "setting": "Histamine H2 receptor", "result": "> 10", "unit": "µM"}, {"measurement": "AC50", "setting": "[5]", "result": "> 30", "unit": "µM"}, {"measurement": "AC50", "setting": "[6]", "result": "> 30", "unit": "µM"}, {"measurement": "AC50", "setting": "[7]", "result": "> 30", "unit": "µM"}, {"measurement": "AC50", "setting": "Histamine H3 receptor", "result": "> 10", "unit": "µM"}]}, {"smiles": "NC(=O)OCC(COC(N)=O)c1ccccc1", "note": "[FELBAMATE]", "values": [{"measurement": "AC50", "setting": "Mu-type opioid receptor", "result": "> 30", "unit": "µM"}, {"measurement": "AC50", "setting": "Adenosine receptor A3", "result": "> 10", "unit": "µM"}, {"measurement": "AC50", "setting": "[1]", "result": "> 10", "unit": "µM"}, {"measurement": "AC50", "setting": "Vasopressin V2 receptor", "result": "> 10", "unit": "µM"}, {"measurement": "AC50", "setting": "[2]", "result": "> 10", "unit": "µM"}, {"measurement": "AC50", "setting": "[8]", "result": "> 10", "unit": "µM"}, {"measurement": "AC50", "setting": "[3]", "result": "> 10", "unit": "µM"}, {"measurement": "AC50", "setting": "Motilin receptor", "result": "> 10", "unit": "µM"}, {"measurement": "AC50", "setting": "[4]", "result": "> 10", "unit": "µM"}, {"measurement": "AC50", "setting": "Histamine H2 receptor", "result": "> 10", "unit": "µM"}, {"measurement": "AC50", "setting": "[5]", "result": "> 30", "unit": "µM"}, {"measurement": "AC50", "setting": "[6]", "result": "> 30", "unit": "µM"}, {"measurement": "AC50", "setting": "[7]", "result": "> 10", "unit": "µM"}, {"measurement": "AC50", "setting": "Progesterone receptor", "result": "> 10", "unit": "µM"}]}, {"smiles": "Cc1cc(C(C)(C)C)c(O)c(C)c1CC1=NCCN1", "note": "[OXYMETAZOLINE]", "values": [{"measurement": "AC50", "setting": "Mu-type opioid receptor", "result": "> 30", "unit": "µM"}, {"measurement": "AC50", "setting": "Adenosine receptor A3", "result": "> 30", "unit": "µM"}, {"measurement": "AC50", "setting": "[1]", "result": "> 30", "unit": "µM"}, {"measurement": "AC50", "setting": "Cannabinoid receptor 1", "result": "> 30", "unit": "µM"}, {"measurement": "AC50", "setting": "[5]", "result": "> 30", "unit": "µM"}, {"measurement": "AC50", "setting": "[6]", "result": "> 30", "unit": "µM"}, {"measurement": "AC50", "setting": "Progesterone receptor", "result": "> 30", "unit": "µM"}]}, {"smiles": "Cc1c(OCC(F)(F)F)ccnc1C[S+]([O-])c1nc2ccccc2[nH]1", "note": "(centres undefined) [LANSOPRAZOLE]", "values": [{"measurement": "AC50", "setting": "Mu-type opioid receptor", "result": 4, "unit": "µM"}, {"measurement": "AC50", "setting": "Adenosine receptor A3", "result": 7.77, "unit": "µM"}, {"measurement": "AC50", "setting": "[1]", "result": "> 10", "unit": "µM"}, {"measurement": "AC50", "setting": "Vasopressin V2 receptor", "result": "> 30", "unit": "µM"}, {"measurement": "AC50", "setting": "[2]", "result": "> 10", "unit": "µM"}, {"measurement": "AC50", "setting": "[8]", "result": 4.88, "unit": "µM"}, {"measurement": "AC50", "setting": "[3]", "result": "> 10", "unit": "µM"}, {"measurement": "AC50", "setting": "Cannabinoid receptor 1", "result": "> 30", "unit": "µM"}, {"measurement": "AC50", "setting": "Motilin receptor", "result": "> 10", "unit": "µM"}, {"measurement": "AC50", "setting": "[4]", "result": "> 30", "unit": "µM"}, {"measurement": "AC50", "setting": "Histamine H2 receptor", "result": "> 10", "unit": "µM"}, {"measurement": "AC50", "setting": "[5]", "result": "> 10", "unit": "µM"}, {"measurement": "AC50", "setting": "[6]", "result": "> 30", "unit": "µM"}, {"measurement": "AC50", "setting": "[7]", "result": 9.67, "unit": "µM"}]}, {"smiles": "CC(C)(C)NCC(O)COc1cccc2c1CCC(=O)N2", "note": "(centres undefined) [CARTEOLOL]", "values": [{"measurement": "AC50", "setting": "Mu-type opioid receptor", "result": "> 30", "unit": "µM"}, {"measurement": "AC50", "setting": "Adenosine receptor A3", "result": "> 10", "unit": "µM"}, {"measurement": "AC50", "setting": "[1]", "result": "> 10", "unit": "µM"}, {"measurement": "AC50", "setting": "Vasopressin V2 receptor", "result": "> 10", "unit": "µM"}, {"measurement": "AC50", "setting": "[2]", "result": "> 10", "unit": "µM"}, {"measurement": "AC50", "setting": "[8]", "result": 11.6, "unit": "µM"}, {"measurement": "AC50", "setting": "[3]", "result": "> 10", "unit": "µM"}, {"measurement": "AC50", "setting": "Cannabinoid receptor 1", "result": "> 30", "unit": "µM"}, {"measurement": "AC50", "setting": "Motilin receptor", "result": "> 10", "unit": "µM"}, {"measurement": "AC50", "setting": "[4]", "result": "> 10", "unit": "µM"}, {"measurement": "AC50", "setting": "Histamine H2 receptor", "result": "> 10", "unit": "µM"}, {"measurement": "AC50", "setting": "[5]", "result": "> 30", "unit": "µM"}, {"measurement": "AC50", "setting": "[6]", "result": "> 30", "unit": "µM"}, {"measurement": "AC50", "setting": "[7]", "result": "> 10", "unit": "µM"}, {"measurement": "AC50", "setting": "Progesterone receptor", "result": "> 10", "unit": "µM"}]}]}
